Data as given in patent US8309766B2 (Obschestvo S. Organichennoi Otvetstvennostiyu …, priority 2005, dated 2012).
Where two headings read alike, the source gives them in different places.

Key:
"hot plate" test in mice = experiment: Analgetic activity on the model "hot plate"; assay type: in vivo, white mongrel mice; details: for response vs control in vivo at 10 mg/kg / change in vivo at 10 mg/kg / change in vivo at 200 mg/kg / response vs control in vivo at 200 mg/kg: Mus musculus; for response vs control in vivo at 10 mg/kg: percent of background; for response vs control in vivo at 10 mg/kg / response vs control in vivo at 200 mg/kg: read-out: Latent time of NT (%); for change in vivo at 10 mg/kg / change in vivo at 200 mg/kg: read-out: Analgesia (%)
Procedure: The tests were conducted on males of white mongrel mice weighing 22-24 grams. The animals were individually placed on a hot plate (manufactured by the firm “Ugo Basile”), a temperature of which remained constant and was equal to 55° C. The following first manifestations of pain reaction were recorded: licking paws, jumping up prior to administration of a substance (background parameters) and 0.5, 1, 2, 3 and 4 hours post administration of a substance. Substances were administered […] (using a probe). A weighed amount of a substance was thoroughly mixed in 0.1 ml Tween 80 until a solution was obtained, then normal saline was added up to a volume of 0.5 ml. Average latent time of nociception threshold (NT) was calculated in every group. The results obtained were expressed in percent of the background values. Analgetic effect (in %) was calculated according to the formula: A−100%=X, wherein A is a background parameter; X is analgetic effect (in %)
A is (time 0.5 to 4 hours post administration×100%): background time
As reference drugs, Analgin (150 mg/kg), Paracetamol (200 mg/kg), Ketorol (10 mg/kg), were used.

[1] = tested on: "acetic contortions" in mice; experiment: Analgetic activity on the model "acetic contortions"; assay type: in vivo, white mongrel mice
Procedure: The tests were conducted on males of white mongrel mice weighing 22-24 grams. The specific pain response (“contortions”) were elicited by intraperitoneal administration to mice of 0.75% acetic acid solution. The following signs were taken into consideration: the number of seizure contractions of abdominal muscles accompanied by stretching the hind limbs and sagging the back. Analgetic effect was assessed by decrease in the number of contortions in animals in percent to the control for 15 minutes post administration of acetic acid. The technique of the tests is disclosed in Koster R., Anderson M., de Beer B.//Fed. Proc. 1959. V. 18. P. 412. Compounds under testing were administered intraperitoneally (using a probe) at a dose 10 μg/kg 60 minutes prior to injection of the acid. Diclofenac (10 mg/kg) was used as a reference drug. Analgetic effect was calculated according to the formula: […]
wherein Ck is the number of contortions in the control group,
Co is the number of contortions in the test group.

[2] = 10 mg/kg, 30 minutes post administration
[3] = 10 mg/kg, 60 minutes post administration
[4] = 10 mg/kg, 120 minutes post administration
[5] = Mus musculus, ip, 0.25 h, dose 10 mg/kg (table title), read-out: Analgetic effect (%)
[6] = Mus musculus, ip, 0.25 h, dose 10 mg/kg (table title), read-out: C, % to the control
[7] = dose 10 mg/kg (table title), 60 minutes prior to acetic acid
[8] = 0.5 h, Paracetamol 200 mg/kg, 30 minutes
[9] = 1 h, Paracetamol 200 mg/kg, 60 minutes
[10] = 2 h, Paracetamol 200 mg/kg, 120 minutes

Compound	latent time of nociception threshold, M ± m ("hot plate" test in mice; [2])	latent time of nociception threshold, M ± m ("hot plate" test in mice; [3])	latent time of nociception threshold, M ± m ("hot plate" test in mice; [4])	response vs control in vivo at 10 mg/kg ("hot plate" test in mice; 0.5 h, 10 mg/kg, 30 minutes)	change in vivo at 10 mg/kg ("hot plate" test in mice; 0.5 h, 10 mg/kg, 30 minutes)	response vs control in vivo at 10 mg/kg ("hot plate" test in mice; 1 h, 10 mg/kg, 60 minutes)	change in vivo at 10 mg/kg ("hot plate" test in mice; 1 h, 10 mg/kg, 60 minutes)	response vs control in vivo at 10 mg/kg ("hot plate" test in mice; 2 h, 10 mg/kg, 120 minutes)	change in vivo at 10 mg/kg ("hot plate" test in mice; 2 h, 10 mg/kg, 120 minutes)	inhibition in vivo at 10 mg/kg [1, 5]	response vs control in vivo at 10 mg/kg [1, 6]	C ± m (the number of contortions for 15 minutes) [1, 7]	other results
COC(=O)C(Cc1ccc(O)cc1)NC(=O)Cc1ccc(O)cc1 (stereo not shown) [Compound IV, p-hydroxyphenylacetyltyrosine methyl ester]	5.24 ± 0.88 s	5.54 ± 0.32 s	5.93 ± 0.59 s	104%	4.2%	110%	10.1%	118%	17.9%	22.1%	77.9%	20.8 ± 1.9	
O=C(Cc1ccc(O)cc1)NC(Cc1ccc(O)cc1)C(=O)O (stereo not shown) [Compound II, p-hydroxyphenylacetyltyrosine]	6.0 ± 0.6 s	6.1 ± 0.8 s	7.3 ± 0.6 s	176%	76.5%	179%	79.4%	215%	115%	24.8%	75.2%	24.2 ± 1.9	
COC(=O)C(Cc1ccccc1)NC(=O)Cc1ccc(O)cc1 (stereo not shown) [Compound V, p-hydroxyphenylacetylphenylalanine methyl ester]	4.85 ± 0.39 s	5.9 ± 0.81 s	6.58 ± 0.72 s	130%	29.7%	158%	57.8%	176%	75.9%	39.3%	60.7%	16.2 ± 2.6	
O=C(Cc1ccccc1)NCCc1ccc(O)cc1 [Compound VI, phenylacetyltyramine]	7.8 ± 0.8 s	8.3 ± 1.0 s	6.8 ± 0.5 s	132%	32.2%	141%	40.7%	115%	15.3%	25.5%	74.5%	21.1 ± 1.8	
O=C(O)Cc1ccccc1Nc1c(Cl)cccc1Cl [Diclofenac, reference compound]													C ± m (the number of contortions for 15 minutes) ([1]; Diclofenac 10 μg/kg [sic]): 12.9 ± 2.13
O=C(Cc1ccc(O)cc1)NCCc1ccc(O)cc1 [Compound VII, p-hydroxyphenylacetyltyramine]		6.9 ± 0.72 s	8.2 ± 0.94 s			134%	34.5%	159%	58.9%				
CC(=O)Nc1ccc(O)cc1 [Paracetamol, reference compound]													change in vivo at 200 mg/kg ("hot plate" test in mice; [8]): 139%; response vs control in vivo at 200 mg/kg ("hot plate" test in mice; [8]): 239%; change in vivo at 200 mg/kg ("hot plate" test in mice; [9]): 58%; response vs control in vivo at 200 mg/kg ("hot plate" test in mice; [9]): 158%; change in vivo at 200 mg/kg ("hot plate" test in mice; [10]): 92%; response vs control in vivo at 200 mg/kg ("hot plate" test in mice; [10]): 192%; latent time of nociception threshold, M ± m ("hot plate" test in mice; Paracetamol 200 mg/kg, 30 minutes): 9.44 ± 1.3 s; latent time of nociception threshold, M ± m ("hot plate" test in mice; Paracetamol 200 mg/kg, 60 minutes): 6.24 ± 0.82 s; latent time of nociception threshold, M ± m ("hot plate" test in mice; Paracetamol 200 mg/kg, 120 minutes): 7.6 ± 1.15 s
O=C(O)Cc1ccccc1Nc1c(Cl)cccc1Cl [Voltaren, reference compound]													inhibition in vivo at 0.008 mg/kg ([1]; Mus musculus, ip, 0.25 h, Voltaren 8 μg/kg, read-out: Analgetic effect (%)): 44.5%; response vs control in vivo at 0.008 mg/kg ([1]; Mus musculus, ip, 0.25 h, Voltaren 8 μg/kg, read-out: C, % to the control): 55.5%; C ± m (the number of contortions for 15 minutes) ([1]; Voltaren 8 μg/kg): 15.8 ± 2.6
